Source: patent US9522907B2, “Anticancer agent and process for the preparation thereof” (COUNCIL OF SCIENTIFIC & INDUSTRIAL RESEARCH, priority 2014, dated 2016)

Legend:
OVCAR-4 = experiment: NCI in vitro cytotoxicity, OVCAR-4; settings: Homo sapiens
Description: (§1) For these compounds results are expressed as growth inhibition (GI50) values as per NCI protocol.

K-562 = experiment: NCI in vitro cytotoxicity, K-562; settings: Homo sapiens, K562
Description: as §1

SF-539 = experiment: NCI in vitro cytotoxicity, SF-539; settings: Homo sapiens
Description: as §1

MOLT-4 = experiment: NCI in vitro cytotoxicity, MOLT-4; settings: Homo sapiens
Description: as §1

OVCAR-8 = experiment: NCI in vitro cytotoxicity, OVCAR-8; settings: Homo sapiens
Description: as §1

EKVX = experiment: NCI in vitro cytotoxicity, EKVX; settings: Homo sapiens
Description: as §1

HCT-15 = experiment: NCI in vitro cytotoxicity, HCT-15; settings: Homo sapiens
Description: as §1

RPMI-8226 = experiment: NCI in vitro cytotoxicity, RPMI-8226; settings: Homo sapiens
Description: as §1

CAKI-1 = experiment: NCI in vitro cytotoxicity, CAKI-1; settings: Homo sapiens
Description: as §1

[1] = test system: BT-549 (breast cancer cell line); experiment: NCI in vitro cytotoxicity, BT-549; settings: Homo sapiens
Description: as §1

A498 = experiment: NCI in vitro cytotoxicity, A498; settings: Homo sapiens
Description: as §1

SK-MEL-5 = experiment: NCI in vitro cytotoxicity, SK-MEL-5; settings: Homo sapiens
Description: as §1

OVCAR-5 = experiment: NCI in vitro cytotoxicity, OVCAR-5; settings: Homo sapiens
Description: as §1

SNB-19 = experiment: NCI in vitro cytotoxicity, SNB-19; settings: Homo sapiens
Description: as §1

HT29 = experiment: NCI in vitro cytotoxicity, HT29; settings: Homo sapiens, HT-29
Description: as §1

MCF-7 = experiment: NCI in vitro cytotoxicity, MCF-7; settings: Homo sapiens, MCF7
Description: as §1

PC-3 = experiment: NCI in vitro cytotoxicity, PC-3; settings: Homo sapiens
Description: as §1

MDA-MB-231/ATCC = experiment: NCI in vitro cytotoxicity, MDA-MB-231/ATCC; settings: Homo sapiens
Description: as §1

U251 = experiment: NCI in vitro cytotoxicity, U251; settings: Homo sapiens, U-251
Description: as §1

SR (leukemia cell line) = experiment: NCI in vitro cytotoxicity, SR; settings: Homo sapiens
Description: as §1

NCI-H226 = experiment: NCI in vitro cytotoxicity, NCI-H226; settings: Homo sapiens
Description: as §1

M14 = experiment: NCI in vitro cytotoxicity, M14; settings: Homo sapiens
Description: as §1

UACC-62 = experiment: NCI in vitro cytotoxicity, UACC-62; settings: Homo sapiens
Description: as §1

HCT-116 = experiment: NCI in vitro cytotoxicity, HCT-116; settings: Homo sapiens
Description: as §1

SK-MEL-2 = experiment: NCI in vitro cytotoxicity, SK-MEL-2; settings: Homo sapiens
Description: as §1

COLO 205 = experiment: NCI in vitro cytotoxicity, COLO 205; settings: Homo sapiens
Description: as §1

NCI-H322M = experiment: NCI in vitro cytotoxicity, NCI-H322M; settings: Homo sapiens
Description: as §1

786-0 = experiment: NCI in vitro cytotoxicity, 786-0; settings: Homo sapiens
Description: as §1

SMILES: COc1ccc2[nH]c(-c3ccc(-c4noc(-c5cc(OC)c(OC)c(OC)c5)n4)cc3)nc2c1 [5i, 3-(4-(5-Methoxy-1H-benzo[d]imidazol-2-yl)phenyl)-5-(3,4,5-trimethoxyphenyl)-1,2,4-oxadiazole]
- GI50 (OVCAR-4): 1.88 µM
- GI50 (K-562): 1.2 µM
- GI50 (SF-539): 2 µM
- GI50 (MOLT-4): 5.29 µM
- GI50 (OVCAR-8): 4.93 µM
- GI50 (EKVX): 26.2 µM
- GI50 (HCT-15): 1.49 µM
- GI50 (RPMI-8226): 6.02 µM
- GI50 (CAKI-1): 23.4 µM
- GI50 [1]: 0.52 µM
- GI50 (A498): 28.5 µM
- GI50 (SK-MEL-5): 3.25 µM
- GI50 (OVCAR-5): 16.7 µM
- GI50 (SNB-19): 1.27 µM
- GI50 (HT29): 2.7 µM
- GI50 (MCF-7): 1.08 µM
- GI50 (PC-3): 240 µM
- GI50 (MDA-MB-231/ATCC): 2.65 µM
- GI50 (U251): 1.68 µM
- GI50 (SR (leukemia cell line)): 0.71 µM
- GI50 (NCI-H226): 2.27 µM
- GI50 (M14): 5.47 µM
- GI50 (UACC-62): 14 µM
- GI50 (HCT-116): 1.9 µM
- GI50 (SK-MEL-2): 18.9 µM

SMILES: COc1cc(-c2nc(-c3ccc(-c4nc5cc(F)ccc5[nH]4)cc3)no2)cc(OC)c1OC [2i, 3-(4-(5-Fluoro-1H-benzo[d]imidazol-2-yl)phenyl)-5-(3,4,5-trimethoxyphenyl)-1,2,4-oxadiazole]
- GI50 (OVCAR-4): 2.82 µM
- GI50 (COLO 205): 4.77 µM
- GI50 (NCI-H322M): 1.3 µM
- GI50 (SF-539): 3.37 µM
- GI50 (MOLT-4): 1.99 µM
- GI50 (OVCAR-8): 2.36 µM
- GI50 (EKVX): 3.45 µM
- GI50 (HCT-15): 3.15 µM
- GI50 (RPMI-8226): 1.94 µM
- GI50 (CAKI-1): 2.76 µM
- GI50 (A498): 4.19 µM
- GI50 (SK-MEL-5): 2.22 µM
- GI50 (OVCAR-5): 5.59 µM
- GI50 (SNB-19): 5.62 µM
- GI50 (HT29): 3.69 µM
- GI50 (MCF-7): 2.88 µM
- GI50 (PC-3): 2.33 µM
- GI50 (MDA-MB-231/ATCC): 2.39 µM
- GI50 (786-0): 3.61 µM
- GI50 (U251): 3.03 µM
- GI50 (SR (leukemia cell line)): 2.98 µM
- GI50 (NCI-H226): 2.72 µM
- GI50 (M14): 3.23 µM
- GI50 (UACC-62): 2.35 µM
- GI50 (HCT-116): 2.13 µM
- GI50 (SK-MEL-2): 4.21 µM
